What is called EC50 is the concentration that produces a half-maximal response. What is called Kp is the ratio of the level in a tissue or fluid to that in plasma or blood.

One data set deals with T1, FXR (Homo sapiens, UniProt Q96RI1).
T1 sequence (Q96RI1 262-486 limits assumed): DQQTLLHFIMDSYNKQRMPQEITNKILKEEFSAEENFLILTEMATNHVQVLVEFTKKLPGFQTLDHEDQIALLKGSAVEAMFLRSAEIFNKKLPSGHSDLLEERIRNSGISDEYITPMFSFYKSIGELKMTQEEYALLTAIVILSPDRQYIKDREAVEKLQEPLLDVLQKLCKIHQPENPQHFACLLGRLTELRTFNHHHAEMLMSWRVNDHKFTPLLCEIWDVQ
In words: FXR agonistic activity, luciferase assay. It counts as cell-based. As to conditions: luc2P-GAL4-HEK293 cells transfected with pBIND-FXR, 24 hours. As for the experimental part:
The FXR agonistic activity of the compound of the present invention was evaluated using the luciferase assay.
The experimental process comprises the follows. The luc2P-GAL4-HEK293 stably transfected cell line (the cell line was established by transfecting pGL4.35 plasmid with HEK293 cells which was then subjected to Hygromycin B screening. The cell contained 9×GAL4 UAS and firefly luciferase reporter gene. The ligand-activated LBD-GAL4 DBD fusion protein can enter the nucleus to bind to 9×GAL4 UAS and activate the transcription of the downstream luciferase reporter gene) was transferred to a 96-well plate with […] per well. pBIND-FXR (Which was constructed by inserting FXR-LBD into pFN26A-BIND hRluc-neo Flexi® vector. The plasmid was 7.5 kb in size, Amp resistant, contained FXR-LBD, and can express FXR-LBD and GAL4 DBD fusion proteins) was transfected using X-tremeGENE HP transfection reagent. The ratio of plasmid to transfection reagent was 1 μg: 2 μl. The specific amount was 100 ng of plasmid and 0.2 μl of X-tremeGENE HP transfection reagent per well. The test compounds (the highest concentration of each compound was 30 μM, 3-fold dilution, a total of 10 concentrations) were added to induce the expression of luciferase. After 24 hours, the 96-well plate containing the test cells was taken out from the incubator, and placed at room temperature. Dual-Glo® Luciferase Reagent with the volume equal to the volume of the medium in the well (80 μl/well) was added to each well and mixed well. The plate was incubated at room temperature for 20 minutes to allow the cells to be fully lysed. All the liquid in the plate was transferred to a 96-well microtiter plate, and the firefly luciferin value was measured with a multi-function plate reader (manufacturer: Bio Tek (USA); model: Synergy4). Dual-Glo® a Stop & Glo® Reagent with the volume equal to the volume of the initial medium (80 μl/well) was added to each well and mixed well. The plate was incubated at room temperature for 10 minutes, and the renilla luciferin value was measured. The measurement order of renilla fluorescence should be the same as that of firefly fluorescence. Curve fitting and EC50 calculation were conducted using GraphPad Prism 5 software by nonlinear regression method. The fitting equation is: Y=Bottom+(Top−Bottom)/(1+10^((Log EC50−X)*HillSlope)), wherein EC50 refers to the semi-effective concentration, Top refers to the maximum effect, Bottom refers to the blank effect, and HillSlope refers to the slope.

Data set [1] can be described thus: Plasma and liver concentration of the compound after 4 days of administration in the cholestasis rat induced by ANIT. It counts as in vivo, SD rats. As to conditions: for concentration at 2 h / concentration at 4 h / Kp at 2 h / Kp at 4 h: SD, oral; for Kp at 2 h / Kp at 4 h: liver/plasma; for concentration at 4 h / Kp at 4 h / Liver concentration of the compound: 4 h. Here is the method:
Sample formulation: The compound of the present invention was added to DMSO, and dissolved completely by ultrasound. 0.5% CMC-Na was added to constant volume (DMSO: 0.5% CMC-Na=1:99), and the solution was homogenized by ultrasound for later use. After 3 to 5 days of acclimation, the animals were divided into 20 groups according to body weight: normal group, model group, Example 8 (3 mg/kg/d, 10 mg/kg/d) group, Example 11 (3 mg/kg/d, 10 mg/kg/d) group, Example 12 (3 mg/kg/d, 10 mg/kg/d) group, Example 14 (3 mg/kg/d, 10 mg/kg/d) group, Example 20 (3 mg/kg/d, 10 mg/kg/d) group, Example 22 (3 mg/kg/d, 10 mg/kg/d) group, Example 26 (3 mg/kg/d, 10 mg/kg/d) group, Example 28 (3 mg/kg/d, 10 mg/kg/d) group, and Example 29 (3 mg/kg/d, 10 mg/kg/d) group, with 10 rats for each group. Intragastric administration was conducted with an administration volume of 10 mL/kg, once a day, for a total of 4 days. On Day 2, ANIT (1-naphthyl isothiocyanate, Macklin, purity: 98%, item number: N814658, CAS number: 551-06-4, specification: 5 g/bottle, storage conditions: 2 to 8 degrees, batch number: C10116101) with a dose of 50 mg/kg and an administration volume of 5 mL/kg was administered intragastrically once to each animal (except for animals in the normal group) 4 hours after the administration. The animals were fasted on Day 4 morning. The animals were anesthetized by isoflurane inhalation using a small animal anesthesia machine. Blood was collected from the venous plexus behind the eyeball using a capillary glass tube (about 1 ml per animal), and then left to stand for about one hour. It was centrifuged at 3500 rpm for 10 minutes to obtain the serum. ALT, AST, GGT and TBA indexes as well as the plasma concentration of the compound were determined using an AU480 automatic biochemical analysis system (BECKMAN COULTER). Liver was collected, weighed, and cutted into pieces. Normal saline was added (liver weight: normal saline=1:2), and the mixture was homogenized and freezed. The concentration of the compound in liver was determined using an ultra performance liquid chromatograph (Shimadzu, LC 30AD) and triple quadrupole mass spectrometer (AB, TQ5500). The plasma concentration and liver concentration of the compound of the present invention after 4 days of administration in the cholestasis rat induced by ANIT are shown in Table 3, Table 4 and Table 5 below.

[2] abbreviates: liver, 3 mg/kg/day, 3 mg/kg/d, read-out: Liver concentration of the compound.
Setting [3] is: liver, 10 mg/kg/day, 10 mg/kg/d, read-out: Liver concentration of the compound.
The mark [4] stands for this setting: plasma, 3 mg/kg/day, 3 mg/kg/d, read-out: Plasma concentration of the compound.
[5] abbreviates: plasma, 10 mg/kg/day, 10 mg/kg/d, read-out: Plasma concentration of the compound.

Like-named read-outs stand apart in the source and are kept apart here.

As to `O=C(O)c1ccc(-c2nnc(N3[C@@H]4CC[C@H]3C[C@@H](OCc3c(-c5c(Cl)cccc5Cl)noc3C3CC3)C4)o2)cc1` [Example 8, 4-(5-((1R,3r,5S)-3-((5-cyclopropyl-3-(2,6-dichlorophenyl)isoxazol-4-yl)methoxy)-8-azabicyclo[3.2.1]octan-8-yl)-1,3,4-oxadiazol-2-yl)benzoic acid], the EC50 at FXR was less than 25 nM. Further, the concentration at 2 h in data set [1] (setting [2]) came to 752 ± 419 ng/g; in data set [1] (setting [3]) it was 986 ± 355 ng/g; in data set [1] (setting [4]), 44.6 ± 36.9 ng/mL; in data set [1] (setting [5]) it was 50.4 ± 74.4 ng/mL. In addition, the concentration at 4 h in data set [1] (setting [2]) worked out at 1190 ± 162 ng/g; in data set [1] (setting [3]), 1190 ± 265 ng/g; in data set [1] (setting [4]) it was 130 ± 120 ng/mL; in data set [1] (setting [5]) it was 16.7 ± 16.4 ng/mL. Besides, the Kp at 2 h in data set [1] (3 mg/kg/day, 3 mg/kg/d) is 43.9 ± 65.2; in data set [1] (10 mg/kg/day, 10 mg/kg/d), 54.9 ± 37. In addition, the Kp at 4 h in data set [1] (3 mg/kg/day, 3 mg/kg/d) was determined as 61 ± 107; in data set [1] (10 mg/kg/day, 10 mg/kg/d), 105 ± 48.6.

Regarding `O=C(O)c1ccc(-c2nnc(N3[C@@H]4CC[C@H]3C[C@@H](OCc3c(-c5c(Cl)cccc5Cl)noc3C3CC3)C4)o2)s1` [Example 11], the EC50 on FXR is 100 to 500 nM. For the same molecule, the “Liver concentration of the compound” value in data set [1] (10 mg/kg/d) is recorded as 3,614.0 ± 1,961.3 ng/g. Further, the concentration at 2 h in data set [1] (setting [2]) came out at 1590 ng/g; in data set [1] (setting [3]) it was 5660 ng/g; in data set [1] (setting [4]), 401 ± 98.4 ng/mL; in data set [1] (setting [5]) it was 1160 ± 1040 ng/mL. For the same molecule, the concentration at 4 h is 1520 ng/g in data set [1] (setting [2]), 340 ± 253 ng/mL in data set [1] (setting [4]) and 664 ± 739 ng/mL in data set [1] (setting [5]). The Kp at 2 h in data set [1] (3 mg/kg/day, 3 mg/kg/d) came to 3.9 ± 1.4; in data set [1] (10 mg/kg/day, 10 mg/kg/d), 9.5 ± 9.1. Besides, the Kp at 4 h is 6.2 ± 3.9 in data set [1] (3 mg/kg/day, 3 mg/kg/d) and 15.5 ± 12.7 in data set [1] (10 mg/kg/day, 10 mg/kg/d).

With `O=C(O)c1ccc(-c2nnc(N3[C@@H]4CC[C@H]3C[C@@H](OCc3c(-c5ccccc5OC(F)(F)F)noc3C3CC3)C4)o2)cc1` [Example 22, 4-(5-((1R,3r,5S)-3-((5-cyclopropyl-3-(2-(trifluoromethoxy)phenyl)isoxazol-4-yl)methoxy)-8-azabicyclo[3.2.1]octan-8-yl)-1,3,4-oxadiazol-2-yl)benzoic acid], at FXR, the EC50 was less than 25 nM. In addition, the concentration at 2 h in data set [1] (setting [2]) was found to be 3760 ng/g; in data set [1] (setting [3]), 12300 ng/g; in data set [1] (setting [4]), 440 ± 481 ng/mL; in data set [1] (setting [5]), 903 ± 348 ng/mL. The concentration at 4 h in data set [1] (setting [2]) came to 3090 ng/g; in data set [1] (setting [3]), 9660 ng/g; in data set [1] (setting [4]), 278 ± 192 ng/mL; in data set [1] (setting [5]), 567 ± 242 ng/mL. The Kp at 2 h is 16.1 ± 10.9 in data set [1] (3 mg/kg/day, 3 mg/kg/d) and 14.2 ± 2.1 in data set [1] (10 mg/kg/day, 10 mg/kg/d). The Kp at 4 h stood at 14.4 ± 6.5 in data set [1] (3 mg/kg/day, 3 mg/kg/d) and 19.2 ± 6.9 in data set [1] (10 mg/kg/day, 10 mg/kg/d).

As to `Cc1cc(C(=O)O)ccc1-c1nnc(N2[C@@H]3CC[C@H]2C[C@@H](OCc2c(-c4c(Cl)cccc4Cl)noc2C2CC2)C3)o1` [Example 14], the EC50 on FXR is less than 25 nM. Moreover, the “Liver concentration of the compound” value in data set [1] (10 mg/kg/d) was 5,093.6 ± 2,197.5 ng/g. For the same molecule, the concentration at 2 h in data set [1] (setting [2]) came to 1240 ng/g; in data set [1] (setting [3]) it was 7840 ng/g; in data set [1] (setting [4]), 168 ± 111 ng/mL; in data set [1] (setting [5]), 402 ± 238 ng/mL. Besides, the concentration at 4 h stood at 1150 ng/g in data set [1] (setting [2]), 172 ± 75.3 ng/mL in data set [1] (setting [4]) and 250 ± 72.4 ng/mL in data set [1] (setting [5]). Further, the Kp at 2 h came to 7.4 ± 1.5 in data set [1] (3 mg/kg/day, 3 mg/kg/d) and 21 ± 4.4 in data set [1] (10 mg/kg/day, 10 mg/kg/d). Also, the Kp at 4 h in data set [1] (3 mg/kg/day, 3 mg/kg/d) stood at 7.1 ± 1.6; in data set [1] (10 mg/kg/day, 10 mg/kg/d), 19.8 ± 7.
